Source: a melting point compilation (Tetko et al.; mined from patent text by program, amines drawn as free bases though some values may be those of a salt)

Structure (SMILES) | melting point [°C]
CCOC(=O)CC(=O)CC(O)/C=C/c1c(-c2ccccc2)ccnc1C (stereo not given) | 83 to 84
O=S(c1ccc(Cl)cc1)c1cc(C(F)(F)F)[nH]c1-c1ccc(Cl)cc1 (stereo not given) | 174 to 176
COc1ccc(-n2nc(Sc3ccc(C)c(C)c3)c(C)c(C#N)c2=O)cc1 | 158 to 160
CCCCCc1nnc(Sc2cc(O)c(C(C)(C)CC(C)(C)C)cc2O)n1-c1ccccc1 | 198
COc1cc(C)cc2c1C(C)(C)CCC2(C)C | 49 to 50
COc1cc2c(c(OC)c1/C=C/c1ccc(CO)cc1)C(C)(C)CCC2(C)C | 102 to 104
CCOC(=O)COc1ccc2c(=O)c3ccccc3oc2c1Cl | 183 to 185
CCc1nc2c(C)c(C#N)c(C)cc2n1-c1ccc(CCNC(=O)NS(=O)(=O)c2ccc(C)cc2)cc1 | 140 to 145
CN1CCN(C2=CCCc3ccc(OCc4ccc(Cl)cc4)cc32)CC1 | 115 to 116
Ic1ccc(OC2CCCC2)cc1 | 50 to 52
CCCCc1nnc(-c2ccco2)n1Cc1ccc([N+](=O)[O-])cc1 | 91 to 92.5
COc1ccc2cc3c(c(-c4ccc5c(c4)OCO5)c2c1OC)C(=O)NC3=O | 274 to 276
CC1Nc2ccc(-c3cccc(Cl)c3)cc2C(C)(C)O1 (stereo not given) | 144 to 146
CC(=O)NNC1=Nc2sc(Cl)cc2C(c2ccccc2F)=NC1 | 207 to 209
Cc1ccc(-c2cc(=O)cc(C(=O)O)o2)cc1 | 237 to 238
COC(=O)c1ccc(OC2CCCCO2)cc1 (stereo not given) | 58 to 62
COc1ccc(C2Sc3c(ccc4ccccc34)N(CCCN(C)C)C(=O)C2OC(C)=O)cc1 (stereo not given) | 98 to 99
NOCc1cn(C(c2ccccc2)(c2ccccc2)c2ccccc2)nn1 | 144 to 145
COc1ccc(F)cc1C(C)(C)CC(O)(C(=O)O)C(F)(F)F (stereo not given) | 102 to 104
BrCc1cccc2c(-c3ccccc3)onc12 | 125 to 126
Cc1nc(C2CCCCC2)c2nc(-c3ccccc3)cc-2[nH]1 | > 280
CCCCC(=O)Nc1ccccc1C(F)(F)F | 63

Structure (SMILES) | melting point [°C]
COc1cc(C=CC(=O)Nc2cnc3cc(C)c(C)cc3c2-c2ccccc2Cl)cc(OC)c1O | 278 to 280
Cn1nnnc1-n1cc(C(=O)O)c(=O)c2cc(F)c(Cl)nc21 | 213 to 220
Cc1nc(C)c(Cl)c(NCCCSc2ccnc(CNc3nc(C)nc(C)c3Cl)c2C)n1 | 170 to 174
O=C1Nc2ccccc2SC1CCCCN1CCN(c2ccc(F)cc2)CC1 (stereo not given) | 150 to 151
Cn1ncc(Cl)c(NCCCN2CCC(c3noc4cc(F)ccc34)CC2)c1=O | 117 to 119
CNc1c(OC)cc(Cc2cnc(N)nc2N)cc1OC | 204
CN1C(=O)N(c2ccc(C#N)c(C(F)(F)F)c2)C(=O)C1(C)C | 158
COc1cc(-c2cc(N)n(C)c3nc(N)nc(=O)c2-3)cc(OC)c1OC | > 300
Fc1ccc(CC[C@H]2CNCCN2)cc1 | 112 to 114
CS(=O)(=O)c1ccc(-c2sc(COc3cccc(Cl)c3)nc2-c2ccccc2F)cc1 | 152 to 153
CCOC(=O)c1c(Cn2cncn2)nc2cc(OC)c(OC)cc2c1-c1ccc(O)c(OC)c1 | 176 to 178
O=C1CC2c3ccccc3CCN2C2CCCCC12 (stereo not given) | 112 to 140
CCOC(=O)c1cc2c(O)nncc2nc1N1CCCCC1 | 178 to 179
O=C(O)[C@@H](Cc1ccccc1)NS(=O)(=O)N1CCN(c2ccc(Cl)cc2)CC1 | 176 to 178
O=C(O)C1(C2CCCc3ccccc32)CC1 (stereo not given) | 140 to 142
COc1ccc2ccc3[nH]c4ccc5ccc(OC)cc5c4c3c2c1 | 133
CCc1cc2c(c(Cl)cc(=O)n2Cc2ccc(C(=O)O)cc2)c(CC)n1 | 250 to 253
CCCc1c(OCCCS(=O)(=O)c2ccc(C(=O)CCC(=O)O)cc2F)ccc(C(C)=O)c1O | 154 to 156
CCOc1cc(C(C)=O)ccc1OCCCN1CCC(c2noc3cc(F)ccc23)CC1 | 112 to 114
O=C(Nc1ccc(F)cc1F)N(Cc1ccccc1)CC(c1ccccc1)c1ccccc1 | 120 to 123
CC(C)Nc1n[nH]c(=O)n1N | 150 to 152
CN(C)C(=O)NC(=O)C(C)(C)Br | 98 to 100

Structure (SMILES) | melting point [°C]
CN1CCN(C2=Cc3ccccc3Oc3ccccc3C2)CC1 | 127
Cc1noc(NS(=O)(=O)c2ccsc2COc2ccc3c(c2Cl)OCO3)c1Br | 152 to 154
Oc1ccc(Cn2ccn(C3CCc4ccccc4C3)c2=S)cc1O (stereo not given) | 173 to 174
Cc1cc(C)cc(C23SCCN2C(=O)c2ccccc23)c1 (stereo not given) | 163
N#Cc1c(N2CCN(C(=O)c3ccco3)CC2)c2cc(F)cnc2n(Cc2ccccc2)c1=O | 216
Cc1ccc(-n2c3ccc(C=O)cc3c3cc(C=O)ccc32)cc1 | 229 to 230
OC1CC2(CCCC2)Oc2ccc(Br)cc21 (stereo not given) | 123 to 124
COC(C)n1cc(C2=C(c3cn(C(C)OC)c4ccccc34)C(=O)NC2=O)c2ccccc21 (stereo not given) | 222 to 224
COc1cc(NCCN(Cc2ccccc2)Cc2ccccc2)ccc1C(N)=O | 136 to 138
Cc1nn(C(=O)NC(C)(C)CCc2ccccc2)c(=O)n1N | 87
CCc1cccc(N2C(c3ccc(Cl)cc3)=NS(=O)(=O)c3cnccc32)c1 | 227 to 229
Cc1oc(-c2ccc(S(C)(=O)=O)cc2)c(Oc2ccc(F)cc2)c(=O)c1Cl | 279
C=CCn1cc2cc3ncc(-c4ccc(OC)c(F)c4)nc3cc2n1 | 196 to 200
O=C(Nc1ccc2c(c1)CN(C(=O)OCc1ccccc1)CC2)OCc1ccccc1 | 113 to 115
CC(=O)CN1C(=O)COc2ccccc21 | 74 to 76
CCCN(CCCCc1c[nH]c2ccc(F)cc12)C1COc2c(ccc3ncccc23)C1 (stereo not given) | 164
CC(C)(CO)c1ccc(C=O)c(O)c1 | 80.4 to 81.9
CN(NC(=O)c1ccccc1C(=O)O)c1nc2ccccc2o1 | 140 to 142
O=C(c1ccc(Oc2ccc(C(F)(F)F)cc2Cl)cc1)C(Cl)Cl | 41 to 42
ON=Cc1c(O)ccc2c1OCO2 | 161 to 162
O=C1c2cc(F)ccc2-n2c1nc1ccc(F)cc1c2=O | 295 to 296
CC(C)N(CCSc1ccc(F)cc1)C(=O)Oc1ccccc1 | 53 to 58

Now from value to compound:

melting point [°C] | Structure (SMILES)
200 to 203 | CC(C)(C)OC(=O)CN1CCC(CNC(=O)c2cc(Cl)c(N)[nH]c2=O)CC1
69 to 70 | COCN1C(C)=C(C(=O)O)C(c2ccccc2C(F)(F)F)C(C(=O)OCOC(=O)C(C)(C)C)=C1C (single isomer, unassigned; (+))
67 to 68 | CCOC(=O)c1cc(OC)c2oc(C)c(C)c2c1
112 | CCOC(=O)c1cccc2c(-c3ccc(C)cc3)nccc12
146 to 149 | CC[C@H](C)[C@H](N)C(=O)N[C@@H](Cc1ccc(OC(C)(C)C)cc1)C(=O)N[C@@H](C)C(=O)NCc1c(OC)ccc2c1Oc1c(ccc(OC)c1CC(=O)O)C2(C)C
163 to 164 | CC(=O)NC1CC(C)(C)N(OCc2cccc(C)c2)C(C)(C)C1
134 to 136 | O=C1c2c(-c3ccccc3)c3cc(Cl)ccc3n2CCN1CCN1CCCC1
63 to 64 | COc1ccc(-c2cccc(F)c2)cc1
41 to 43 | CCCCCCCCCCCCc1cc(Cc2ccccc2)on1
59 to 60 | O=C1Nc2ccccc2SC1CCCO (stereo not given)
93 | CCCCCCCNC(=O)N(C)c1cccc(-c2ccc(C=C(OC)C(=O)OC)cc2)c1
38 to 39 | Clc1ccccc1-c1cnccn1
91 to 93 | Cc1cc(SC(C)C)c(NC(=O)CCCCCCSc2nc3c(C)c(Cl)cc(C(C)C)c3o2)c(SC(C)C)n1
128 | Nc1ccc(Oc2c(Cl)cc(C(F)(F)F)c(Cl)c2Cl)cc1Cl
142 to 145 | COC(=O)C(C)(SC)c1ccc(N2C(=O)c3ccccc3C2=O)cc1 (stereo not given)
140 to 144 | c1ccc(-c2cc3c(ccc4ccccc43)o2)cc1
116 to 120 | O=C(NCCC1CCCCC1)c1cc(-c2ccc(Cl)c(C(=O)O)n2)ccc1Cl

melting point [°C] | Structure (SMILES)
181 to 183 | Cc1ccc(Sc2cncc3sc(C(N)=S)cc23)cc1
122 to 127 | C=CCn1c(-c2cccnc2)nn(CN2CCN(c3cccc4c3OCCO4)CC2)c1=S
201 to 202 | CCCN(Cc1cccc(C(=N)N)c1)C(=O)Nc1ccc(-c2ccccc2S(=O)(=O)NC(C)(C)C)cc1
210 to 212 | Cc1ccccc1-c1c(NC(=O)Nc2ccc(F)cc2F)c(=O)oc2ccc(Cl)cc12
155 to 157 | CCCOc1cc(C(=O)O)cc(S(N)(=O)=O)c1-c1ccccc1
77 to 79 | CCn1cccc1C(=O)C(C#N)C(=O)Nc1ccccc1 (stereo not given)
184 to 185 | COc1nc(C)cnc1NS(=O)(=O)c1cccnc1-c1ccc(C)cc1
228 to 230 | Cc1c(-c2ccc(O)cc2)sc(C=O)c1-c1ccc(O)c(C=O)c1
214 to 215 | COc1ccc2c(c1)CCC1C2C(OC(C)=O)CC2(C)C(OC(C)=O)CCC12 (stereo not given)
184 to 186 | CON1CCC(=Cc2nc(C(C)(C)C)c(O)c(C(C)(C)C)n2)C1=O
161 to 162 | Cc1oc(-c2ccccc2)nc1COc1ccc(CON=C(CCC(=O)O)c2ccncc2)cc1
139 to 144 | NCCCC=CCCC(=O)O
124 | CCC1SC(=O)N(Cc2ccc(NC(=O)C(F)(F)F)cc2)N=C1c1ccc(OC)c(OC)c1 (stereo not given)
260 to 263 | C[C@H]1C(=O)NC(=O)N1CC(=O)Nc1c2c(nc3ccccc13)CCCC2
202 to 204 | Cc1c(C(=O)OCc2ccc(Cl)cc2)oc2cccc(O)c12
142 to 144 | N#CC=C1CCN(c2ccc(N3C[C@H](CNC(=O)C(Cl)(Cl)Cl)OC3=O)cc2F)CC1
247 | CCc1ccc2sc3cc(-c4nnn[nH]4)ccc3c(=O)c2c1
